Measurements taken from article PMC5454592, “Pharmacological and Toxicological Properties of the Potent Oral γ-Secretase Modulator BPN-15606” (The Journal of Pharmacology and Experimental Therapeutics, 2017).
pIC50: −log10 of the molar value.

How the values were obtained:
γ-secretase = γ-secretase (Homo sapiens, UniProt P49768); test: SHSY5Y-APP cell-based MSD Aβ triplex screening assay; set-up: endogenous in cells; host or cells: human SH-SY5Y neuroblastoma cells stably overexpressing human APP751 wild-type
Method: All Aβ assays, including the anti-Aβ immunoprecipitation/matrix-assisted laser desorption/ionization time of flight, were carried out as described previously ([Wagner et al., 2014]).

in vivo [1] = settings: cynomolgus monkey
Method: The objectives of this study were to determine the MTD of BPN-15606, characterize potential toxicity, and calculate toxicokinetic parameters of BPN-15606 in adult male and female cynomolgus macaques following daily po dose administration at a near-MTD dose of BPN-15606 for 7 consecutive days. In the dose escalation phase to establish the MTD (phase A), male and female cynomolgus macaques (n = 2/sex) were administered single doses of BPN-15606 at 3, 10, 30, 100, and 300 mg/kg, with 2 to 4 days between each dose escalation (Fig. 10). […] The plasma drug concentrations at the approximate Tmax increased in a dose-dependent manner. […] Comprehensive evaluation of clinical pathology parameters (clinical chemistry, hematology), gross pathology, and histopathologic parameters was carried out at SRI International, according to their standardized protocols. Tissues examined histopathologically included the following: liver, lung, stomach, duodenum, colon, spleen, pancreas, thymus, heart, brain, and kidney.

PK in rat (i.v./po) = type: in vivo; settings: male, plasma, Sprague–Dawley rats, 5 mg/kg po vs 1 mg/kg i.v.
Method: Male CD-1 mice and male Sprague–Dawley rats were administered a single dose of BPN-15606 by i.v. or oral gavage (po) dose routes to assess oral bioavailability. Mice and rats received BPN-15606 as a single i.v. dose at 1 mg/kg (n = 5) or a single po dose at 5 mg/kg (n = 5). Blood was collected from mice and rats at 5 (i.v. only), 15, and 30 minutes, and 1, 2, 4, 8, and 12 hours postdose for processing to plasma. For mice, brains were collected from both dose groups (i.v. and po) at 1, 4, 8, and 12 hours postdose. For rats, brains were collected from those same animals at the 12-hour time point only. […]
Data were subjected to noncompartmental analysis using WinNonlin Phoenix Model 200 (for extravascular administration) or Model 201 (for i.v. bolus administration) and the sparse sampling feature; a uniform weighting factor was applied to each data set. Time to maximum plasma concentration (Tmax) and maximum plasma concentration (Cmax) values were determined directly from the data. Area under the plasma concentration–time curve to the last time point (AUClast) values were calculated using the log/linear trapezoidal (i.v. dose) or linear up/log down trapezoidal (po dose). Values were calculated using the plasma data from composite groups. […] The volume of distribution at steady state and clearance were calculated using the i.v. group data. […]

in vivo [2] = settings: rat
From the text: The objectives of this toxicity study were to determine maximum tolerated dose (MTD), characterize the potential toxicity, and calculate toxicokinetic parameters of BPN-15606 in adult male Sprague–Dawley rats (8–10 weeks of age) following daily po dose administration for 7 consecutive days, and to evaluate its potential to damage chromosomes or cause mitotic spindle abnormalities in vivo, as measured by the incidence of micronucleus formation in RNA-containing erythrocytes (bone marrow micronucleus assay). An overview of the study design is presented in Supplemental Table 8. Male rats were administered BPN-15606 po for 7 consecutive days at 30, 100, or 300 mg/kg (groups 2, 3, and 4). A control group (group 1) was given vehicle, 15% Labrasol/85% sterile water, at an equivalent dose volume (10 ml/kg). A 375 mg/kg dose (group 5) was included for determination of day 1 plasma drug levels. Clinical observations were recorded twice daily.
All rats in groups 1, 2, and 3 (0, 30, and 100 mg/kg, respectively) survived until their scheduled day 8 sacrifice, and all tissues specified for histologic evaluation were collected. None of the group 4 (300 mg/kg) animals survived the 7-day dosing period: three were sacrificed in moribund condition, and two were found dead. Necropsy examinations were performed on all rats, but, for group 4 animals, tissues for histopathologic examination were collected only from those rats that were sacrificed in moribund condition. Histopathology assessment was conducted on all tissues collected from all animals in groups 1 and 3, and all tissues collected from group 4 animals euthanized moribund. From group 2 rats, the following tissues were examined histopathologically: duodenum; jejunum; ileum; liver; lung; pancreas; spleen; stomach; and thymus, which were evaluated based on findings at the higher dose levels. When present, grossly altered tissues were examined histopathologically from all group 1, 2, and 3 rats, and from moribund sacrifice group 4 rats. Microscopic data were recorded, and a four-step grading system (minimal, mild, moderate, and marked) was used to define gradable changes. Terminology for data capture was consistent with International Harmonization of Nomenclature and Diagnostic Criteria as promulgated by the Society of Toxicologic Pathology.

Aβ42 and Aβ40 levels = test: Acute single-dose pharmacodynamics in mice; type: in vivo, C57BL/6J mice; settings: single oral dose 25 mg/kg, C57BL/6 mice
Method: Male C57BL/6J mice (n = 5 per group) were administered a single dose of either vehicle (80% polyethylene glycol 400 v/v; 20% sterile water v/v and 0.1% Tween 20 v/v) or BPN-15606 (25 mg/kg) by po and sacrificed at 0.5, 1, 2, 4, 8, 12, and 24 hours following the dosing. Plasma and brain extracts were prepared, and Aβ peptides were quantitated as described previously ([Kounnas et al., 2010]). Statistical analysis was performed as described above for the repeat dosing studies.

Question: What does the source list for `COc1nc(-c2cc(C)c(N[C@@H](C)c3ccc(F)cc3)nn2)ccc1-n1cnc(C)c1` [BPN-15606, (S)-N-(1-(4-fluorophenyl)ethyl)-6-(6-methoxy-5-(4-methyl-1H-imidazol-1-yl)pyridin-2-yl)-4-methylpyridazin-3-amine]?
Answer: AβTotal (γ-secretase; SHSY5Y-APP cells): No change; pIC50 (γ-secretase; human SHSY5Y neuroblastoma cells stably overexpressing human APP751 wild-type, read-out: Aβ42 IC50): 8.15; NOAEL (in vivo [1]; both sexes): 30 mg/kg; MTD (in vivo [1]; both sexes, MTD after a single-dose administration): 300 mg/kg; NOEL after a single dose (in vivo [1]; both): 30 mg/kg; clinical signs after single doses (in vivo [1]; both): limited to emesis in the 100 and 300 mg/kg groups; clinical pathology parameters after single-dose administration (in vivo [1]): no apparent changes; clinical signs on repeat dosing (in vivo [1]; po, 300 mg/kg): emesis, reduced appetite, and reduced stool; gross findings at necropsy (in vivo [1]; po, 300 mg/kg): no gross findings at necropsy; hepatic histopathological findings (in vivo [1]; po, 300 mg/kg): minimal sinusoidal leukocytosis in two male monkeys and moderate focal fatty infiltration in one female monkey; renal histopathological findings (in vivo [1]; po, 300 mg/kg): mild to moderate proximal tubular necrosis, casts, and dilation with cortical and medullary subacute inflammation; bioavailability (PK in rat (i.v./po)): > 60%; MTD at 7 days (in vivo [2]; male, Sprague-Dawley): ~100 mg/kg; mortality (in vivo [2]; male, Sprague-Dawley, 300 mg/kg, 7 days): either found dead or sacrificed in moribund condition on day 3 or 4; NOEL (in vivo [2]; male, Sprague-Dawley, 7 days): ≥ 30 mg/kg; MTD at 7 days (in vivo [2]; male, Sprague-Dawley, po): ~100 mg/kg/day; no-observed-effect level (NOEL) (in vivo [2]; male, Sprague-Dawley, po, 7 days): 30 mg/kg/day; absolute number and percent of reticulocytes, of the control values (in vivo [2]; 100 mg/kg): about 20%; decrease in mean corpuscular hemoglobin (in vivo [2]; 100 mg/kg): 6.9%; increase in RBC (in vivo [2]; 100 mg/kg): 10.5%; increase in hemoglobin (in vivo [2]; 100 mg/kg): 10.9%; liver histopathology (in vivo [2]; 300 mg/kg): Hepatocyte basophilia, hypertrophy, and lipidosis; clinical observations (in vivo [2]; po, 30 mg/kg): appeared normal throughout the treatment period; duration of effect on brain and plasma Aβ42 and Aβ40 levels (Aβ42 and Aβ40 levels): ≥ 24 h; onset of effect on brain and plasma Aβ42 and Aβ40 levels (Aβ42 and Aβ40 levels): 30 to 60 min
